For assay [1], the system named is U87 human glioblastoma xenografts. The assay is described as follows: SCID mouse xenograft model of human glioblastoma. The class given is in vivo, SCID mice. As for the experimental part:
(§1) FIGS. 1A-1B illustrate the in vivo antitumor activity of the vanadium compound, [VO(SO4)(Me2-Phen)2] against human glioblastoma and breast cancer in SCID mice. The effects of daily treatment with [VO(SO4)(Me2-Phen)2] (10 mg/kg/day) or 5% DMSO in PBS (given five days per week for four weeks beginning the day after inoculation) on tumor growth and progression of glioblastoma (FIG. 1A) and breast cancer (FIG. 1B) are illustrated. Comparisons between groups were done using the log-rank test.
(§2) The animal protocols used in this study were approved by the Parker Hughes Institute Institutional Animal Care and Use Committee (IACUC). […]
(§3) The right and left hind legs of the SCID mice were inoculated subcutaneously with 1×10^6 U87 human glioblastoma and 1×10^6 MDA-MB-231 beast cancer cells, respectively, in 0.1 mL PBS. […] Mice were monitored daily for health status as well as tumor growth and were sacrificed if they became moribund, developed tumors which impeded their ability to attain food or water, or at the ed of the six-week observation period. Tumors were measured using Vernier calipers three times per week. Tumor volumes were calculated according to the following formula, as described previously (Narla et al., Clin Cancer Res., 4: 1405-14, 1998; Friedman et al., Cancer Res., 55: 2853-2857, 1995): Tumor volume=(Width)^2(Length)/2. […]
(In xenograft studies the graft and the host belong to different species.)

For assay [2], the system named is MDA-MB-231 breast cancer xenografts. The assay is described as follows: SCID mouse xenograft model of human breast cancer. The class given is in vivo, SCID mice. On the procedure: as §1, §2, §3
The subject of assay [3] is MCF-7 breast cancer cells. The experiment in a line: MTT cytotoxicity assay, MCF-7. The class given is cell-based, human. The settings on record: MCF-7 cells, 48 h incubation, 3 independent experiments, read-out: IC50 (mean ± SE). On the procedure:
Human brain tumor cells lines U87 MG (Cat.# HTB-14), U118 MG (Cat. # HTB-15), U138 (Cat # HTB-16), U373 MG (CAT. # HTB-17), and T98G (Cat. # CRL-1690) and breast cancer cell lines BT-20 (Cat # HTB-19), MDA-MB-231 (Cat # HTB-26), MDA-MB-361 (Cat # HTB-27), and MCF-7 (Cat # HTB-22) were obtained from American Type Culture Collection (ATCC, Rockville, Md.) and maintained as continuous cell lines in Dulbecco's modified Eagles's medium (U87, U118, U138, U373, T98 and BT-20) or Leibovitz's L-15 medium (MDA-MB-231 and MDA-MB-361). All media were supplemented with 10% fetal calf serum (FCS), 4 mM glutamine, 100 U/ml penicillin G and […] streptomycin sulfate. All tissue culture reagents were obtained from Life Technologies Inc. (GIBCO-BRL, Gaithersburg, Md.).
The cytotoxicity of [VO(SO4)(Me2-Phen)2] against human cancer cell lines was analyzed using the MTT (3-[4,5-dimethylthiazol-2-yl]-2,5-diphenyl tetrazolium bromide) assay (Boehringer Mannheim Corp., Indianapolis, Ind.) as described previously (Narla et al., Clin Cancer Res., 4: 1405-1414, 1998). […] The absorbance at 540 nm (a reference wavelength of 690 nm was used) of the solution in each well was measured using a microplate reader (Labsystems). The percent survival and the IC50 values were calculated using Graphpad Prism v2.0 (Graphpad Software, Inc., San Diego, Calif.) as described previously (Narla et al., Supra). […]
(In general: Formazan colour is commonly taken as a measure of viable cells.)

In general, IC50 refers to the concentration that inhibits the measured activity by half. Turning to `Cc1ccnc2c1ccc1c(C)ccnc12.Cc1ccnc2c1ccc1c(C)ccnc12.O=S(=O)([O-])[O-].[O]=[V+2]` [[VO(SO4)(Me2-Phen)2], bis(4,7-dimethyl-1,10-phenanthroline) sulfatooxovanadium (IV)], in assay [1] (U87, 1.5 months after inoculation, 10 mg/kg i.p., vehicle control 6928±653, P=0.007), the “average size of tumor xenografts” value worked out at 3199±646 mm^3. Also, the “mice remaining alive and free of detectable tumors for >16 days” value in assay [1] (U87 xenografts, 10 mg/kg/dose i.p., five days per week for four weeks) is 40%. For the same compound, the “average size of tumors” value in assay [2] (MDA-MB-231, 1.5 months after inoculation, 10 mg/kg i.p., vehicle control 641±98.7, P=0.004) worked out at 286.9±41.5 mm^3. For the same compound, the “mice remaining alive and free of detectable tumors for >19 days” value in assay [2] (follows the MDA-MB-231 sentence, 10 mg/kg/dose i.p., five days per week for four weeks) was 50%. Also, the IC50 in assay [3] stood at 2300 ± 400 nM.

Values taken from patent US6878388B1, “Vanadium compounds for treating proliferative cell disorders” (Parker Hughes Institute, priority 2000, dated 2005).
